Key:
NTRK1 (TrkA) = NTRK1 (TrkA) (Homo sapiens, UniProt P04629); test: Radiometric kinase assay; format: biochemical; conditions: read-out: Kinase inhibition (%) NTRK1 (TrkA)
KIT (c-Kit) = KIT (c-Kit) (Homo sapiens, UniProt P10721); test: Radiometric kinase assay; format: biochemical; conditions: read-out: Kinase inhibition (%) KIT (c-Kit)
AKT1 = AKT1 (Homo sapiens, UniProt P31749); test: Radiometric kinase assay; format: biochemical; conditions: read-out: Kinase inhibition (%) AKT1
CDK2/cyclin A = CDK2/cyclin A (Homo sapiens, UniProt P24941); test: Radiometric kinase assay; format: biochemical; conditions: read-out: Kinase inhibition (%) CDK2/cyclin A
AsPC-1 cells [1] = test: Cell cycle test, RNase/PI flow cytometry; format: cell-based, human; conditions: AsPC-1, 3, 10, 30, 50 µM, 48 h
EBC-1 = test: MTT antiproliferative assay, EBC-1; format: cell-based, human; conditions: Homo sapiens, EBC-1, 72 h, read-out: IC50 EBC-1
ROS1 = ROS1 (Homo sapiens, UniProt P08922); test: Radiometric kinase assay; format: biochemical; conditions: read-out: Kinase inhibition (%) ROS1
MAPK1 (ERK2) = MAPK1 (ERK2) (Homo sapiens, UniProt P28482); test: Radiometric kinase assay; format: biochemical; conditions: read-out: Kinase inhibition (%) MAPK1 (ERK2)
MET = MET (Homo sapiens, UniProt P08581); test: Radiometric kinase assay; format: biochemical; conditions: read-out: Kinase inhibition (%) MET
MCF-7 = test: MTT antiproliferative assay, MCF-7; format: cell-based, human; conditions: Homo sapiens, MCF7, 72 h, read-out: IC50 MCF-7
AKT2 = AKT2 (Homo sapiens, UniProt P31751); test: Radiometric kinase assay; format: biochemical; conditions: read-out: Kinase inhibition (%) AKT2
FGFR1 = FGFR1 (Homo sapiens, UniProt P11362); test: Radiometric kinase assay; format: biochemical; conditions: read-out: Kinase inhibition (%) FGFR1
CDK6/cyclinD3 = CDK6/cyclinD3 (Homo sapiens, UniProt Q00534); test: Radiometric kinase assay; format: biochemical; conditions: read-out: Kinase inhibition (%) CDK6/cyclinD3
WEE1 = WEE1 (Homo sapiens, UniProt P30291); test: Radiometric kinase assay; format: biochemical; conditions: read-out: Kinase inhibition (%) WEE1
NTRK2 (TrkB) = NTRK2 (TrkB) (Homo sapiens, UniProt Q16620); test: Radiometric kinase assay; format: biochemical; conditions: read-out: Kinase inhibition (%) NTRK2 (TrkB)
PIK3CA = PIK3CA (Homo sapiens, UniProt P42336); test: Radiometric kinase assay; format: biochemical; conditions: read-out: Kinase inhibition (%) PIK3CA
ERBB2 (Her-2) = ERBB2 (Her-2) (Homo sapiens, UniProt P04626); test: Radiometric kinase assay; format: biochemical; conditions: read-out: Kinase inhibition (%) ERBB2 (Her-2)
ABL1 = ABL1 (Homo sapiens, UniProt P00519); test: Radiometric kinase assay; format: biochemical; conditions: read-out: Kinase inhibition (%) ABL1
Mia-Paca-2 = test: MTT antiproliferative assay, Mia-Paca-2; format: cell-based, human; conditions: Homo sapiens, MIA PaCa-2, 72 h, read-out: IC50 Mia-Paca-2
AsPC-1 cells [2] = test: Apoptosis by Hoechst 33,258 staining; format: cell-based, human; conditions: AsPC-1, 10 and 30 µM, 48 h
BRAF = BRAF (Homo sapiens, UniProt P15056); test: Radiometric kinase assay; format: biochemical; conditions: read-out: Kinase inhibition (%) BRAF
PDGFRA (PDGFRα) = PDGFRA (PDGFRα) (Homo sapiens, UniProt P16234); test: Radiometric kinase assay; format: biochemical; conditions: read-out: Kinase inhibition (%) PDGFRA (PDGFRα)
HT-29 = test: MTT antiproliferative assay, HT-29; format: cell-based, human; conditions: Homo sapiens, HT-29, 72 h, read-out: IC50 HT-29
IGF1R = IGF1R (Homo sapiens, UniProt P08069); test: Radiometric kinase assay; format: biochemical; conditions: read-out: Kinase inhibition (%) IGF1R
NTRK3 (TrkC) = NTRK3 (TrkC) (Homo sapiens, UniProt Q16288); test: Radiometric kinase assay; format: biochemical; conditions: read-out: Kinase inhibition (%) NTRK3 (TrkC)
ALK = ALK (Homo sapiens, UniProt Q9UM73); test: Radiometric kinase assay; format: biochemical; conditions: read-out: Kinase inhibition (%) ALK
PDGFRB (PDGFRβ) = PDGFRB (PDGFRβ) (Homo sapiens, UniProt P09619); test: Radiometric kinase assay; format: biochemical; conditions: read-out: Kinase inhibition (%) PDGFRB (PDGFRβ)

MET, sequence (P08581 25-1390): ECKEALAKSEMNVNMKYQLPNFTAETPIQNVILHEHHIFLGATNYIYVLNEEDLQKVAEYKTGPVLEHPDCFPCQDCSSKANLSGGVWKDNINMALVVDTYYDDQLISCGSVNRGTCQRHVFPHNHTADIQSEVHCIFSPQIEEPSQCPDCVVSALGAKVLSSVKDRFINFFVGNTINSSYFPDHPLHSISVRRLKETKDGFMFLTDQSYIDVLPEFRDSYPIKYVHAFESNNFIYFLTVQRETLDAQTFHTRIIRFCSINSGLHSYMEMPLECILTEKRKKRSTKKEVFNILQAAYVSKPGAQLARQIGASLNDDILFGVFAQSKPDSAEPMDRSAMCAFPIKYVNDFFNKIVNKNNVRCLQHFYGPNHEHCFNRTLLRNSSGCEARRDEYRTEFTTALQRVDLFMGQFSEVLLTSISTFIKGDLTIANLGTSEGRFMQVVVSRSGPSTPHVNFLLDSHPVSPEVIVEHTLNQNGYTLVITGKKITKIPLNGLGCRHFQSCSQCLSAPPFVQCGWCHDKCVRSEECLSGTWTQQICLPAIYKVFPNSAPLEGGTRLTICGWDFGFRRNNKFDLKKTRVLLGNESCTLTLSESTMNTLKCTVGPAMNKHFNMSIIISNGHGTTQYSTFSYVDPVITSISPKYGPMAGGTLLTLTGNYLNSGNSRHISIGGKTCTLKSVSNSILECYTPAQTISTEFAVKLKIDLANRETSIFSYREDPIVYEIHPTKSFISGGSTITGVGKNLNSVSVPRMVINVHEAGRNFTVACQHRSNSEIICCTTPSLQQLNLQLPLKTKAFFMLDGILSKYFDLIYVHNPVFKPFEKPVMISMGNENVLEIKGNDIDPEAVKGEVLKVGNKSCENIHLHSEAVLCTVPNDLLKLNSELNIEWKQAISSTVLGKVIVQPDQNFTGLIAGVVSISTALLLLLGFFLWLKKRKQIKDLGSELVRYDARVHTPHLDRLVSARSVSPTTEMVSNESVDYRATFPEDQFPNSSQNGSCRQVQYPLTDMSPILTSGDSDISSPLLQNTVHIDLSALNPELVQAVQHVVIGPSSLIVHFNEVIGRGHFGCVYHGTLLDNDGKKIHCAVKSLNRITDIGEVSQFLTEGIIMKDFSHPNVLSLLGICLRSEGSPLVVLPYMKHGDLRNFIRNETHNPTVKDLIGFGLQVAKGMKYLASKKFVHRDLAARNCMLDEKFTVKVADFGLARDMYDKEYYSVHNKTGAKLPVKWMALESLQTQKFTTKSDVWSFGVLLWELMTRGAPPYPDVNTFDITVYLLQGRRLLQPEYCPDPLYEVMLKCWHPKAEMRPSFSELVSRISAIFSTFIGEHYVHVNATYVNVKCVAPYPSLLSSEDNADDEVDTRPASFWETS
PIK3CA, sequence (P42336 whole entry): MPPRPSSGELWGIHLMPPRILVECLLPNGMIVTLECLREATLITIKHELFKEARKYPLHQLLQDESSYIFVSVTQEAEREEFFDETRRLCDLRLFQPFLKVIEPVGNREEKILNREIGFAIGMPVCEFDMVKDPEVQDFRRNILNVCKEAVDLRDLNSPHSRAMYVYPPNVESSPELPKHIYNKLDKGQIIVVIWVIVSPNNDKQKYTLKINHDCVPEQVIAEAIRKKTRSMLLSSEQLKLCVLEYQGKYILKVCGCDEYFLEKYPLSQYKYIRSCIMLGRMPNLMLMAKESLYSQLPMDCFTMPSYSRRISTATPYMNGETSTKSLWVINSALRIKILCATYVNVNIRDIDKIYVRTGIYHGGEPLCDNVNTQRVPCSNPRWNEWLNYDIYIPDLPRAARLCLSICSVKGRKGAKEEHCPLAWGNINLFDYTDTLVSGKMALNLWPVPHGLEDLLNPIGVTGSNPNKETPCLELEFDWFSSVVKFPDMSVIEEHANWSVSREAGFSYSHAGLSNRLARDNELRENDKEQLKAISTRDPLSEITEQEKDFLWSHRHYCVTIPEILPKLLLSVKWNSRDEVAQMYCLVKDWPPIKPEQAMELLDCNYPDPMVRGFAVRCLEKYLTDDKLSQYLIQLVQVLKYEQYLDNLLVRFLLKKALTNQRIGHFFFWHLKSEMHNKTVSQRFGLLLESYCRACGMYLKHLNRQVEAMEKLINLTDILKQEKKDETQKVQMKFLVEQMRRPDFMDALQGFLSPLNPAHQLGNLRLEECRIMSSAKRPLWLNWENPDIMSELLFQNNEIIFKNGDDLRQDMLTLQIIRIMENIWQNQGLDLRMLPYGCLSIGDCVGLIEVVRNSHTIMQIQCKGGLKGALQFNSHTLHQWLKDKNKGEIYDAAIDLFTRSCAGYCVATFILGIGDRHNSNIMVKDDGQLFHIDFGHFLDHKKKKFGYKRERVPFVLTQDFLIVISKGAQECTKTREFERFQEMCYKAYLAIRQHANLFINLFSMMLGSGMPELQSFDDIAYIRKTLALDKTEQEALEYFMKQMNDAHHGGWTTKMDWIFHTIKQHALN
PIK3CA, sequence (P27986 whole entry partner): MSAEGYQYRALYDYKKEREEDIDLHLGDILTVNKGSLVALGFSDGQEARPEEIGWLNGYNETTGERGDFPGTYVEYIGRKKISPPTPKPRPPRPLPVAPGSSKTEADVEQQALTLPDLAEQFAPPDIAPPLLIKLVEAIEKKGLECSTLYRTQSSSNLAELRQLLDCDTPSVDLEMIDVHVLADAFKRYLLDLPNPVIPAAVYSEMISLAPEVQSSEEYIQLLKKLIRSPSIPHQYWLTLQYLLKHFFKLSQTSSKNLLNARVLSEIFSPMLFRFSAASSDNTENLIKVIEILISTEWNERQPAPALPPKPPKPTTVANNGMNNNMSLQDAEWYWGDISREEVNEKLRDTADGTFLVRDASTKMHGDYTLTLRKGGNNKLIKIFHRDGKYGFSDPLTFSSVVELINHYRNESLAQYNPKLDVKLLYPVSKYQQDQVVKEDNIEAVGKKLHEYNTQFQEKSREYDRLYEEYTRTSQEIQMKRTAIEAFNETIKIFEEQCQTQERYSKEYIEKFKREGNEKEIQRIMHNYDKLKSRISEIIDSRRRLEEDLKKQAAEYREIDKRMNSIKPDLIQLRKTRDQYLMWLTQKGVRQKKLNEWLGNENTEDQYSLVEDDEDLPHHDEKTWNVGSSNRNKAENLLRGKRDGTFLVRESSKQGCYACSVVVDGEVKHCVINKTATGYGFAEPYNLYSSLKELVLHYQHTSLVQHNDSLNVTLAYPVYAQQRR
CDK6/cyclinD3, sequence (Q00534 whole entry): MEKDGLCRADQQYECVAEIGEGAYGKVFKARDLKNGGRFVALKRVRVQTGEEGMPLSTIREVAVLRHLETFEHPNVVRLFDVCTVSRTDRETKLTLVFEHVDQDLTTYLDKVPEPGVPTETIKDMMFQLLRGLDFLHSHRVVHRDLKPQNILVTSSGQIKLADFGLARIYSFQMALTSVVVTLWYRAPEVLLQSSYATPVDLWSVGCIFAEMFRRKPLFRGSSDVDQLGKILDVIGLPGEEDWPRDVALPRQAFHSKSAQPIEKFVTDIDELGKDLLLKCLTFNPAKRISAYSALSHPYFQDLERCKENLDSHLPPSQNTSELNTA
CDK6/cyclinD3, sequence (P30281 whole entry partner): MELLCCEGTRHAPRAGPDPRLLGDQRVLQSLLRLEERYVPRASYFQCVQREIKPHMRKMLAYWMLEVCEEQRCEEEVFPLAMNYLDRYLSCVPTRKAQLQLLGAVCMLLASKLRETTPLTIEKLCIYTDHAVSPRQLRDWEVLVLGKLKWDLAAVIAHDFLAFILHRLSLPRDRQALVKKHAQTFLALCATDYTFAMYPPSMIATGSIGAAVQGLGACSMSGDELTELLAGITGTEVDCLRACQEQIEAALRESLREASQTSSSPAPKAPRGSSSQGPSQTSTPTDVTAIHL
WEE1, sequence (P30291 whole entry): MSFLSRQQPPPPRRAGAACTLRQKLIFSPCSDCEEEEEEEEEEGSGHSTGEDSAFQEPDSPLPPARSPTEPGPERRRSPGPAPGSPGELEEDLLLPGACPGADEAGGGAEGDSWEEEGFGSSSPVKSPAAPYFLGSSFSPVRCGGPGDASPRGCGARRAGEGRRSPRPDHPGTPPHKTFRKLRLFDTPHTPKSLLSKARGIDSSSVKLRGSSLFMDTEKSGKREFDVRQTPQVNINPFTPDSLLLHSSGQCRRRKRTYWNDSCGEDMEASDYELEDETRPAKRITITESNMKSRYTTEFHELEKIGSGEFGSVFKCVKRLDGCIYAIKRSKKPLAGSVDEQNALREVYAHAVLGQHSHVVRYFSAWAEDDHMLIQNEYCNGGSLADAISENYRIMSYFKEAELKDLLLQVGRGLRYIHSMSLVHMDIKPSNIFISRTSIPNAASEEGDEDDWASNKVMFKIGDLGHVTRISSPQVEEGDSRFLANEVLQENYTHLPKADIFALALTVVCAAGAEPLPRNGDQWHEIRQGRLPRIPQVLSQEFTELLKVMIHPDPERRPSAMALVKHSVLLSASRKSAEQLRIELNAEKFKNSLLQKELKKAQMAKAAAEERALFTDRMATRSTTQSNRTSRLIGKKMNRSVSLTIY
AKT1, sequence (P31749 whole entry): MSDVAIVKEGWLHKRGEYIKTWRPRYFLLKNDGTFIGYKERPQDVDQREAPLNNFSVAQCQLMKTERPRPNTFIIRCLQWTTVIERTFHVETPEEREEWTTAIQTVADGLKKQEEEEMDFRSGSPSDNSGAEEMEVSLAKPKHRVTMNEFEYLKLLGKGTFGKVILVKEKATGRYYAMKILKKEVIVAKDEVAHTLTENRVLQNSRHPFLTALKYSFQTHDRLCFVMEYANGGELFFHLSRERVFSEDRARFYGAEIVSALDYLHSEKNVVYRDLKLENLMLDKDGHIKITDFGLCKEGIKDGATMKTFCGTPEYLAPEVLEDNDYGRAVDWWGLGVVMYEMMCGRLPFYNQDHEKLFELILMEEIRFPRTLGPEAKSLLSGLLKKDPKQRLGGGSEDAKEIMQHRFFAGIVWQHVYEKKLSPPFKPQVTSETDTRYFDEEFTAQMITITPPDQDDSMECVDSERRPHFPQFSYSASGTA

`O=C1C=C(Nc2ccc(OCc3cn(Cc4ccc(Cl)c(Cl)c4)nn3)cc2)C(=O)c2ccccc21` [Compound 4e, 2-((4-((1-(3,4-Dichlorobenzyl)−1H-1,2,3-triazol-4-yl)methoxy)phenyl)amino) naphthalene-1,4-dione] gave an inhibition at 10 µM (NTRK1 (TrkA)) of 2%, an inhibition at 10 µM (KIT (c-Kit)) of -8% and an inhibition at 10 µM (AKT1) of 15%. For the same compound, the inhibition at 10 µM (CDK2/cyclin A) was 9%, the “Effect on cell cycle distribution (S and G2/M phases)” value (AsPC-1 cells [1]) was “dose-dependently increased the number of cells in the S phase and simultaneously reduced the cells in G2/M phase” and the “Effect on sub-G1 and G0/G1 phases” value (AsPC-1 cells [1]) was “increase in cells in sub-G1 phase, while reducing G0/G1 cells”. The IC50 (EBC-1) was 300 ± 100 nM, the inhibition at 10 µM (ROS1) was -2% and the inhibition at 10 µM (MAPK1 (ERK2)) was 6%. The inhibition at 10 µM (MET) was -14%, the IC50 (MCF-7) was 7100 ± 4300 nM and the inhibition at 10 µM (AKT2) was -7%. For the same compound, the inhibition at 10 µM (FGFR1) was -5%, the inhibition at 10 µM (CDK6/cyclinD3) was 3% and the inhibition at 10 µM (WEE1) was -4%. For the same compound, the inhibition at 10 µM (NTRK2 (TrkB)) was 6%, the inhibition at 10 µM (PIK3CA) was 3% and the inhibition at 10 µM (ERBB2 (Her-2)) was 2%. For the same compound, the inhibition at 10 µM (ABL1) was 13%, the IC50 (Mia-Paca-2) was 800 ± 100 nM and the “Apoptosis induction (nuclear morphology)” value (AsPC-1 cells [2]) was “characteristic features of apoptosis including densely packed chromatin within the nucleus as well as nuclear fragmentation”. The inhibition at 10 µM (BRAF) was -7%, the inhibition at 10 µM (PDGFRA (PDGFRα)) was 43% and the IC50 (HT-29) was 600 ± 200 nM. The inhibition at 10 µM (IGF1R) was -11%, the inhibition at 10 µM (NTRK3 (TrkC)) was 12% and the inhibition at 10 µM (ALK) was 15%. It also gave an inhibition at 10 µM (PDGFRB (PDGFRβ)) of 14%.

Source: publication PMC11850817 (Scientific Reports, 2025)
